Assay results as given in paper PMC7215574, “Development of Thiazolidinones as Fungal Carbonic Anhydrase Inhibitors” (International Journal of Molecular Sciences, 2020).
Values after ≈ are worked out from the molar mass of the structure shown. Read-outs that look alike come from different tables or passages of the source.

What was measured:
C. albicans 5 strains = test system: T1, C. albicans 5 strains; experiment: microbe, parasite or virus in culture; parameters: species or system clinical Candida isolates; broth microdilution antifungal MIC, visual growth inhibition, CLSI; conditions: Candida albicans, 24 h, read-out: Tested Fungi (MIC Values μg/mL) / C. albicans 5 strains
T1 construct: 5 clinical isolates
Experimental: (§1) The in vitro antifungal activities were determined by the broth microdilution method with sabouraud dextrose broth (BBL Microbiology Systems, Cockeysville, MD, USA), as recommended by the by the CLSI [43]. Ninety-six-well polystyrene microtitre plates containing serial dilutions of each compound were inoculated with each microorganism to yield the appropriate density (1–5 × 10^3 cells/mL) in a 100-μL final volume. Each plate included (i) fungi without the addition of the compound, (ii) just the medium, and (iii) just the compound. Topical and systemic antifungal reference drugs, clotrimazole and fluconazole, were inserted in the experiment. The plates were incubated for 24 h at 35 °C. […] Three independent experiments were performed in triplicate. The antimicrobial activity of these thiazolidinones was evaluated versus 24 clinical Gram-positive (S. aureus and S. epidermidis) and Gram-negative (E. coli and Enterobacter spp.) microorganisms. The antifungal activity of these derivatives was then tested versus 16 clinical fungal isolates belonging to the most relevant Candida spp. (C. albicans, C. tropicalis, C. parapsilosis, C. sakè, and C. glabrata). Prior to testing, each isolate was cultured on a selective medium to ensure purity and optimal growth, as previously reported. The isolates were routinely identified by the morphological aspects of colonies and by biochemical identification. The used clinical isolates were collected from specimens of patients at the ‘Azienda Policlinico Umberto I’ (Sapienza University of Rome) and were obtained from hematology/oncology and surgery departments, which also included an intensive care unit. In particular, the samples were isolated from the upper and lower respiratory tract, blood, and indwelling venous catheters; the isolates were identified by conventional methodologies. Participating subjects gave their written informed consent for this study.

[1] = test system: T2, Candida sake C. sakè 3 strains; experiment: microbe, parasite or virus in culture; parameters: species or system clinical Candida isolates; broth microdilution antifungal MIC, visual growth inhibition, CLSI; conditions: Fermentozyma sake, 24 h; read-out: Tested Fungi (MIC Values μg/mL) / C. sakè 3 strains
T2 construct: 3 clinical isolates
Experimental: as §1

C. glabrata 3 strains [2] = test system: T3, C. glabrata 3 strains; experiment: microbe, parasite or virus in culture; parameters: species or system clinical Candida isolates; broth microdilution antifungal MIC, visual growth inhibition, CLSI; conditions: Nakaseomyces glabratus, 24 h, read-out: Tested Fungi (MIC Values μg/mL) / C. glabrata 3 strains
T3 construct: 3 clinical isolates
Experimental: as §1

C. tropicalis 3 strains [3] = test system: T4, C. tropicalis 3 strains; experiment: microbe, parasite or virus in culture; parameters: species or system clinical Candida isolates; CLSI broth microdilution MIC, Sabouraud dextrose broth, 35 °C, visual complete growth inhibition; conditions: Candida tropicalis, 24 h, read-out: Tested Fungi (MIC Values μg/mL) / C. tropicalis 3 strains
T4 construct: 3 clinical isolates
Experimental: as §1

[4] = test system: T5, C. parapsilosis 2 strains; experiment: microbe, parasite or virus in culture; parameters: species or system clinical Candida isolates; CLSI broth microdilution MIC, Sabouraud dextrose broth, 35 °C, visual complete growth inhibition; conditions: Lodderomyces parapsilosis, 24 h, read-out: Tested Fungi (MIC Values μg/mL) / C. parapsilosis 2 strains
T5 construct: 2 clinical isolates
Experimental: as §1

hCA I = biological target: T6, hCA I (Homo sapiens, UniProt P00915); experiment: stopped-flow CO2 hydrase assay; format: biochemical
T6 construct: gene CA1; recombinant, obtained in-house as previously reported
T6 sequence (P00915 2-261): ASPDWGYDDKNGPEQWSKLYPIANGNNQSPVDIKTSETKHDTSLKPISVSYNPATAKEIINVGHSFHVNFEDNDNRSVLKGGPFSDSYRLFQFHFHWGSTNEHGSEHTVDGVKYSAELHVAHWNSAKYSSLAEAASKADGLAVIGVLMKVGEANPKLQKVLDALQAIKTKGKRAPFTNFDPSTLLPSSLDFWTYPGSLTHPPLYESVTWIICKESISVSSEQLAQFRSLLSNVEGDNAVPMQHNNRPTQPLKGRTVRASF
Excerpt: stopped-flow CO2 hydrase assay on hCA I

CgNce103 = biological target: T7, CgNce103 (Nakaseomyces glabratus, UniProt Q6FTL6); experiment: stopped-flow CO2 hydrase assay; format: biochemical
T7 construct: gene NCE103; recombinant, obtained in-house as previously reported; beta-class zinc enzyme
T7 sequence (Q6FTL6 1-219): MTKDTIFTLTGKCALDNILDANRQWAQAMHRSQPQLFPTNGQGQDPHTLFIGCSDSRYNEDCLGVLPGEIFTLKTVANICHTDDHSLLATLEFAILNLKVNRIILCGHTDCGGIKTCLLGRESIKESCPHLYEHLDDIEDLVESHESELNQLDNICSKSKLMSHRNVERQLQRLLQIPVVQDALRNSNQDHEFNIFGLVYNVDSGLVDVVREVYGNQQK

[5] = stopped-flow CO2 hydrase assay; format: biochemical, Homo sapiens; conditions: read-out: hCA I
hCA II = biological target: T8, hCA II (Homo sapiens, UniProt P00918); experiment: stopped-flow CO2 hydrase assay; format: biochemical
T8 construct: gene CA2; recombinant, obtained in-house as previously reported
Excerpt: stopped-flow CO2 hydrase assay on hCA II

[6] = test system: T2, Candida sake C. sakè 3 strains; experiment: microbe, parasite or virus in culture; parameters: species or system clinical Candida isolates; CLSI broth microdilution MIC, Sabouraud dextrose broth, 35 °C, visual complete growth inhibition; conditions: Fermentozyma sake, 24 h; read-out: Tested Fungi (MIC Values μg/mL) / C. sakè 3 strains
Experimental: as §1

C. glabrata 3 strains [7] = test system: T3, C. glabrata 3 strains; experiment: microbe, parasite or virus in culture; parameters: species or system clinical Candida isolates; CLSI broth microdilution MIC, Sabouraud dextrose broth, 35 °C, visual complete growth inhibition; conditions: Nakaseomyces glabratus, 24 h, read-out: Tested Fungi (MIC Values μg/mL) / C. glabrata 3 strains
Experimental: as §1

C. tropicalis 3 strains [8] = test system: T4, C. tropicalis 3 strains; experiment: microbe, parasite or virus in culture; parameters: species or system clinical Candida isolates; broth microdilution antifungal MIC, visual growth inhibition, CLSI; conditions: Candida tropicalis, 24 h, read-out: Tested Fungi (MIC Values μg/mL) / C. tropicalis 3 strains
Experimental: as §1

Compound	MIC (C. albicans 5 strains) [µg/mL]	MIC [1] [µg/mL]	MIC (C. glabrata 3 strains [2]) [µg/mL]	MIC (C. tropicalis 3 strains [3]) [µg/mL]	MIC [4] [µg/mL]	Ki (hCA I) [µM]	Ki (CgNce103) [µM]	Ki [5] [µM]	Ki (hCA II) [µM]	MIC [6] [µg/mL]	MIC (C. glabrata 3 strains [7]) [µg/mL]	MIC (C. tropicalis 3 strains [8]) [µg/mL]
CC1S/C(=N\NC(=O)C(O)c2ccccc2)N(c2ccc([N+](=O)[O-])cc2)C1=O (centres unmarked) [4j]	8 to 32 (≈ 20 to 79.9 µM)	8 to 32 (≈ 20 to 79.9 µM)	8 to 32 (≈ 20 to 79.9 µM)	16 (≈ 40 µM)	32 (≈ 79.9 µM)	–	–	–	–	–	–	–
CC1S/C(=N\NC(=O)C(O)c2ccccc2)N(c2cccc(C(F)(F)F)c2)C1=O (centres unmarked) [4k]	32 to 128 (≈ 75.6 to 302 µM)	8 to 32 (≈ 18.9 to 75.6 µM)	8 to 32 (≈ 18.9 to 75.6 µM)	128 (≈ 302 µM)	64 (≈ 151 µM)	> 100	0.11	> 100	–	–	–	–
O=C(N/N=C1\SCC(=O)N1c1cccc(Cl)c1)C(O)c1ccccc1 (centres unmarked) [3e]	8 to 32 (≈ 21.3 to 85.1 µM)	8 to 32 (≈ 21.3 to 85.1 µM)	8 to 32 (≈ 21.3 to 85.1 µM)	32 (≈ 85.1 µM)	32 (≈ 85.1 µM)	> 100	0.43	–	50.3	–	–	–
O=C(N/N=C1\SCC(=O)N1c1ccccc1F)C(O)c1ccccc1 (centres unmarked) [3a]	4 to 8 (≈ 11.1 to 22.3 µM)	–	–	32 (≈ 89 µM)	32 (≈ 89 µM)	> 100	0.27	> 100	–	16 (≈ 44.5 µM)	16 (≈ 44.5 µM)	–
CC1S/C(=N\NC(=O)C(O)c2ccccc2)N(c2ccc(Cl)cc2)C1=O (centres unmarked) [4d]	4 to 16 (≈ 10.3 to 41 µM)	4 to 8 (≈ 10.3 to 20.5 µM)	8 to 32 (≈ 20.5 to 82.1 µM)	–	8 (≈ 20.5 µM)	–	–	–	–	–	–	8 to 32 (≈ 20.5 to 82.1 µM)
CC1S/C(=N\NC(=O)C(O)c2ccccc2)N(c2ccc(F)cc2)C1=O (centres unmarked) [4b]	16 to 32 (≈ 42.8 to 85.7 µM)	4 to 8 (≈ 10.7 to 21.4 µM)	8 to 32 (≈ 21.4 to 85.7 µM)	–	8 (≈ 21.4 µM)	> 100	0.48	> 100	–	–	–	8 to 32 (≈ 21.4 to 85.7 µM)
Cc1ccccc1N1C(=O)CS/C1=N\NC(=O)C(O)c1ccccc1 (centres unmarked) [3j]	8 to 16 (≈ 22.5 to 45 µM)	8 to 32 (≈ 22.5 to 90 µM)	8 to 32 (≈ 22.5 to 90 µM)	32 (≈ 90 µM)	16 (≈ 45 µM)	–	–	–	–	–	–	–
O=C(N/N=C1\SCC(=O)N1c1cccc(Br)c1)C(O)c1ccccc1 (centres unmarked) [3h]	8 to 16 (≈ 19 to 38.1 µM)	–	8 to 32 (≈ 19 to 76.1 µM)	–	8 (≈ 19 µM)	> 100	0.82	–	55.7	16 (≈ 38.1 µM)	–	8 to 32 (≈ 19 to 76.1 µM)
CC1S/C(=N\NC(=O)C(O)c2ccccc2)N(c2cccc(Br)c2)C1=O (centres unmarked) [4e]	4 to 16 (≈ 9.21 to 36.8 µM)	4 to 8 (≈ 9.21 to 18.4 µM)	4 to 8 (≈ 9.21 to 18.4 µM)	–	32 (≈ 73.7 µM)	> 100	0.56	–	68.2	–	–	4 to 8 (≈ 9.21 to 18.4 µM)
O=C(N/N=C1\SCC(=O)N1c1ccc(F)cc1)C(O)c1ccccc1 (centres unmarked) [3c]	4 to 8 (≈ 11.1 to 22.3 µM)	–	–	32 (≈ 89 µM)	32 (≈ 89 µM)	> 100	0.38	–	76.7	16 (≈ 44.5 µM)	16 (≈ 44.5 µM)	–
O=C(N/N=C1\SCC(=O)N1c1ccc([N+](=O)[O-])cc1)C(O)c1ccccc1 (centres unmarked) [3n]	8 to 32 (≈ 20.7 to 82.8 µM)	8 to 32 (≈ 20.7 to 82.8 µM)	8 to 32 (≈ 20.7 to 82.8 µM)	32 (≈ 82.8 µM)	32 (≈ 82.8 µM)	–	–	–	–	–	–	–
O=C(N/N=C1\SCC(=O)N1c1ccccc1Br)C(O)c1ccccc1 (centres unmarked) [3g]	8 to 16 (≈ 19 to 38.1 µM)	–	8 to 32 (≈ 19 to 76.1 µM)	–	8 (≈ 19 µM)	> 100	10.2	> 100	–	16 (≈ 38.1 µM)	–	8 to 32 (≈ 19 to 76.1 µM)
COc1ccc(N2C(=O)C(C)S/C2=N\NC(=O)C(O)c2ccccc2)cc1 (centres unmarked) [4i]	8 to 32 (≈ 20.8 to 83 µM)	8 to 32 (≈ 20.8 to 83 µM)	8 to 32 (≈ 20.8 to 83 µM)	16 (≈ 41.5 µM)	32 (≈ 83 µM)	> 100	0.69	> 100	–	–	–	–
